In the NIST ThermoML archive (doi:10.1016/j.jct.2004.10.011):

Assay: xn = mol fraction of the nth substance listed
Settings: Liquid, Vibrating tube method

CCC(=O)c1ccccc1 [ethyl phenyl ketone] + Cc1ccccc1
mass density [kg/m3]
Settings	x2 = 0	x2 = 0.1048	x2 = 0.2025	x2 = 0.3006	x2 = 0.3991	x2 = 0.4998	x2 = 0.6004	x2 = 0.7036	x2 = 0.8028	x2 = 0.902
318.15 K, 100 kPa	988.3	976.2	965	952.8	940	926.14	911.27	895.5	879.2	861.9
318.15 K, 2130 kPa	989.6	977.6	966.4	954.3	941.4	927.61	912.78	897	880.8	863.6
318.15 K, 4150 kPa	990.9	978.9	967.7	955.6	942.8	929.03	914.26	898.5	882.4	865.2
318.15 K, 6180 kPa	992.1	980.1	969	956.9	944.1	930.44	915.7	900	883.9	866.8
318.15 K, 8210 kPa	993.3	981.4	970.2	958.2	945.5	931.83	917.14	901.5	885.4	868.4
318.15 K, 10230 kPa	994.6	982.7	971.5	959.5	946.8	933.2	918.57	903	886.9	870
318.15 K, 11250 kPa	995.2	983.3	972.1	960.1	947.5	933.86	919.25	903.7	887.7	870.7
318.15 K, 12260 kPa	995.8	983.9	972.8	960.8	948.1	934.53	919.93	904.4	888.4	871.5
318.15 K, 14290 kPa	997	985.1	974	962	949.4	935.85	921.32	905.8	889.8	873
318.15 K, 16310 kPa	998.1	986.3	975.2	963.3	950.7	937.19	922.68	907.2	891.3	874.5
318.15 K, 18340 kPa	999.3	987.5	976.4	964.5	952	938.52	924.03	908.6	892.7	876
318.15 K, 20370 kPa	1000.4	988.7	977.6	965.7	953.2	939.75	925.33	909.9	894.1	877.4
318.15 K, 22390 kPa	1001.6	989.9	978.8	967	954.5	941.04	926.66	911.2	895.5	878.9
318.15 K, 24420 kPa	1002.7	991	980	968.1	955.7	942.28	927.93	912.5	896.8	880.3
318.15 K, 26450 kPa	1003.8	992.1	981.1	969.3	956.8	943.5	929.18	913.8	898.2	881.6
318.15 K, 28470 kPa	1004.9	993.3	982.2	970.5	958	944.7	930.43	915.1	899.5	883
318.15 K, 29490 kPa	1005.5	993.8	982.8	971.1	958.6	945.34	931.09	915.7	900.1	883.7
318.15 K, 30500 kPa	1006	994.4	983.4	971.6	959.2	945.93	931.69	916.4	900.8	884.3
318.15 K, 32530 kPa	1007.1	995.5	984.5	972.8	960.4	947.12	932.92	917.6	902.1	885.7
318.15 K, 34550 kPa	1008.2	996.6	985.6	973.9	961.5	948.29	934.11	918.8	903.3	887
318.15 K, 36580 kPa	1009.2	997.7	986.7	975	962.7	949.45	935.3	920	904.6	888.3
318.15 K, 38600 kPa	1010.3	998.7	987.8	976.1	963.7	950.58	936.48	921.2	905.8	889.5
318.15 K, 39620 kPa	1010.8	999.3	988.3	976.6	964.3	951.19	937.08	921.9	906.4	890.2
328.15 K, 100 kPa	979.6	967.8	956.5	944.4	931.4	917.54	902.56	886.7	870.2	852.8
328.15 K, 2130 kPa	981.1	969.1	957.8	945.7	932.8	918.96	904.06	888.3	871.8	854.5
328.15 K, 4150 kPa	982.4	970.5	959.2	947.1	934.3	920.45	905.6	889.9	873.5	856.2
328.15 K, 6180 kPa	983.7	971.8	960.5	948.5	935.7	921.95	907.14	891.5	875.1	857.9
328.15 K, 8210 kPa	985	973.1	961.8	949.9	937.1	923.37	908.63	893	876.7	859.6
328.15 K, 10230 kPa	986.2	974.5	963.2	951.2	938.5	924.82	910.11	894.5	878.3	861.2
328.15 K, 11250 kPa	986.9	975.1	963.8	951.9	939.2	925.52	910.85	895.3	879	862
328.15 K, 12260 kPa	987.5	975.7	964.5	952.5	939.9	926.2	911.57	896	879.8	862.8
328.15 K, 14290 kPa	988.7	977	965.8	953.9	941.2	927.61	913.02	897.5	881.4	864.5
328.15 K, 16310 kPa	990	978.3	967.1	955.2	942.6	928.98	914.44	898.9	882.9	866
328.15 K, 18340 kPa	991.2	979.5	968.3	956.5	943.9	930.34	915.83	900.4	884.4	867.6
328.15 K, 20370 kPa	992.3	980.8	969.6	957.7	945.2	931.69	917.22	901.8	885.8	869.1
328.15 K, 22390 kPa	993.5	982	970.8	959	946.5	933.04	918.61	903.2	887.3	870.6
328.15 K, 24420 kPa	994.7	983.2	972	960.2	947.7	934.34	919.95	904.6	888.7	872
328.15 K, 26450 kPa	995.9	984.4	973.2	961.5	949	935.61	921.26	905.9	890.1	873.5
328.15 K, 28470 kPa	997.1	985.6	974.5	962.7	950.2	936.91	922.59	907.2	891.5	874.9
328.15 K, 29490 kPa	997.6	986.2	975	963.3	950.8	937.56	923.26	908	892.2	875.7
328.15 K, 30500 kPa	998.2	986.7	975.6	963.9	951.5	938.18	923.89	908.6	892.9	876.4
328.15 K, 32530 kPa	999.3	987.9	976.8	965.1	952.7	939.41	925.17	909.9	894.2	877.7
328.15 K, 34550 kPa	1000.4	989	978	966.2	953.9	940.65	926.43	911.2	895.6	879.1
328.15 K, 36580 kPa	1001.5	990.2	979.1	967.4	955.1	941.85	927.68	912.5	896.9	880.4
328.15 K, 38600 kPa	1002.6	991.3	980.3	968.6	956.2	943.07	928.95	913.7	898.2	881.8
328.15 K, 39620 kPa	1003.2	991.9	980.8	969.1	956.9	943.64	929.53	914.4	898.8	882.4
